Patent US12435087B2, “Modulators of DCN-1 and methods of use thereof” (Cellarity, Inc., priority 2023, dated 2025)

Target: DCN1 protein (Homo sapiens (Human), UniProt Q96GG9)
Test: Intact protein MS analysis with the RapidFire-TOF system (covalent adduct formation)
Format: binding
Details: 400 nM DCN1, incubated at room temperature for 3 hours
Protocol: (§1) DCN1 protein, His-TEV-DCN1, were expressed in E. Coli. The His-tagged protein was first purified with an Ni-NTA column. The His-tag was cleaved using His-tag TEV protease and the His-tags were removed using a second Ni-NTA column. Protein purity was verified with SDS-PAGE and intact MS. DCN1 was dissolved in a buffer containing 25 mM Tris-HCl, 200 mM NaCl, and 1 mM DTT at 400 nM. 11 concentrations of compounds were added to the DCN1 solution and incubated at room temperature for 3 hours, unless otherwise specified. The reaction plates were quenched by adding 0.2% formic acid. Quenched assay plates were analyzed with an Agilent RapidFire 360 system connected to an Agilent 6545 Q-TOF mass spectrometer equipped with an AJS source. 10 μL of sample volume was loaded onto a custom packed cartridge (4 μL, PLRP-S 30 μm/1000 Å pore; Optimize Technologies) with loading buffer (ddH2O with 0.09% (vol/vol) formic acid and 0.01% (vol/vol) trifluoroacetic acid; 1.25 ml/min) for 6 seconds before being eluted directly into the mass spectrometer in elution buffer (80% acetonitrile with 0.09% (vol/vol) formic acid and 0.01% (vol/vol) trifluoroacetic acid; 0.5 ml/min) for 7 seconds. The cartridge was re-equilibrated with loading buffer for 1 second before collection of the next sample. The Q-TOF was operated in TOF-only positive ionization mode set to the following parameters: Gas Temp=350 C, Drying Gas=7 l/min, Nebulizer=50 psi, Sheath Gas Temp=400 C, Sheath Gas Flow=12 l/min, VCap=4000 V, Nozzle Voltage=1000 V, Fragmentor=125 V, Skimmer=65 V and Oct 1 RF Vpp=750V. Raw MS data files were deconvoluted and analyzed using the Agilent MassHunter Bioconfirm software package to identify both parent protein and expected compound adduct mass signatures.
An MS assay was performed to evaluate the ability of the compounds to covalently modify DCN-1.
as §1, with “Vcap=4000” for “VCap=4000”

Chain of DCN1 protein (Q96GG9 whole entry): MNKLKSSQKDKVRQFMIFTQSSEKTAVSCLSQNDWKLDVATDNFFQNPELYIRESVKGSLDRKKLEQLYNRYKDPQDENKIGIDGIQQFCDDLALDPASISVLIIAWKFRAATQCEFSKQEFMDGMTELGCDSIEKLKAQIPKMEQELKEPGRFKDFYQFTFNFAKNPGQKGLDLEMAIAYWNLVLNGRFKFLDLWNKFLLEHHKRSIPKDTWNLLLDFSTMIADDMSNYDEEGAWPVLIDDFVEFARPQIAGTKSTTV

Compound	Emax [%]	% Adduct Formation (MS Emax)
C/C=C/C(=O)Nc1cccc([C@H]2c3c(C)nn(-c4ccccc4)c3N(CC)C(=O)[C@@H]2NC(=O)c2cccc(C(F)(F)F)c2)c1 (racemic) [Compound I-164]	0 to 30	–
CCN1C(=O)[C@H](NC(=O)c2cccc(C(F)(F)F)c2)[C@@H](c2ccccc2NC(=O)/C=C/C(=O)OC)c2cnn(-c3ccccc3)c21 (racemic) [Compound I-167]	80 to 100	–
CCN1C(=O)[C@H](NC(=O)c2cccc(C(F)(F)F)c2)[C@@H](c2ccccc2NC(=O)/C=C/C(F)(F)F)c2cnn(-c3ccccc3)c21 (racemic) [Compound I-168]	0 to 30	–
CCN1C(=O)[C@H](NC(=O)c2cccc(C(F)(F)F)c2)[C@@H](c2ccccc2NC(=O)CCl)c2cnn(-c3ccccc3)c21 (racemic) [Compound I-170]	–	+++ (MS Emax % adduct formation greater than 80.0 and less than or equal to 100.0)
CCN1C(=O)[C@H](NC(=O)c2cccc(C(F)(F)F)c2)[C@@H](c2cccc(NC(=O)COc3c(F)c(F)cc(F)c3F)c2)c2c(C)nn(-c3ccccc3)c21 (racemic) [Compound I-171]	0 to 30	–
C=C(CN1CCOCC1)C(=O)Nc1cccc([C@H]2c3c(C)nn(-c4ccccc4)c3N(CC)C(=O)[C@H]2NC(=O)c2cccc(C(F)(F)F)c2)c1 (racemic) [Compound I-172]	–	+ (MS Emax % adduct formation greater than or equal to 0.0 and less than or equal to 30.0)
C#CC(=O)Nc1cccc([C@H]2c3c(C)nn(-c4ccccc4)c3N(CC)C(=O)[C@H]2NC(=O)c2cccc(C(F)(F)F)c2)c1 (racemic) [Compound I-173]	30 to 80	–
C=C(CN(C)C)C(=O)Nc1ccccc1[C@H]1c2cnn(-c3ccccc3)c2N(CC)C(=O)[C@@H]1NC(=O)c1cccc(C(F)(F)F)c1 (racemic) [Compound I-177]	30 to 80	–
CCN1C(=O)[C@H](NC(=O)c2cccc(C(F)(F)F)c2)[C@@H](c2ccccc2NC(=O)/C(C#N)=C/C2CC2)c2cnn(-c3ccccc3)c21 (racemic) [Compound I-179]	80 to 100	–
C=C(C)C(=O)Nc1ccccc1[C@H]1c2cnn(-c3ccccc3)c2N(CC)C(=O)[C@@H]1NC(=O)c1cccc(C(F)(F)F)c1 (racemic) [Compound I-183]	0 to 30	–
CCN1C(=O)[C@@H](NC(=O)c2cccc(C(F)(F)F)c2)[C@@H](c2cccc(NS(=O)(=O)CCl)c2)c2c(C)nn(-c3ccccc3)c21 (racemic) [Compound I-184]	0 to 30	–
C=CS(=O)(=O)Nc1cccc([C@H]2c3c(C)nn(-c4ccccc4)c3N(CC)C(=O)[C@H]2NC(=O)c2cccc(C(F)(F)F)c2)c1 (racemic) [Compound I-186]	30 to 80	–
CCN1C(=O)[C@H](NC(=O)c2cccc(C(F)(F)F)c2)[C@@H](c2ccccc2NC(=O)C2=CCCC2)c2cnn(-c3ccccc3)c21 (racemic) [Compound I-188]	0 to 30	–
C=CC(=O)Nc1ccccc1[C@H]1c2cnn(-c3ccccc3)c2N(CC)C(=O)[C@@H]1NC(=O)c1cccc(C(F)(F)F)c1 (racemic) [Compound I-190]	30 to 80	–
CC#CC(=O)Nc1cccc([C@H]2c3c(C)nn(-c4ccccc4)c3N(CC)C(=O)[C@@H]2NC(=O)c2cccc(C(F)(F)F)c2)c1 (racemic) [Compound I-193]	30 to 80	–
C#CC(=O)Nc1ccccc1[C@H]1c2cnn(-c3ccccc3)c2N(CC)C(=O)[C@@H]1NC(=O)c1cccc(C(F)(F)F)c1 (racemic) [Compound I-194]	80 to 100	–
CCN1C(=O)[C@H](NC(=O)c2cccc(C(F)(F)F)c2)[C@@H](c2ccccc2NC(=O)/C=C/CN(C)C)c2cnn(-c3ccccc3)c21 (racemic) [Compound I-196]	0 to 30	–
C=C(F)C(=O)Nc1ccccc1[C@H]1c2cnn(-c3ccccc3)c2N(CC)C(=O)[C@@H]1NC(=O)c1cccc(C(F)(F)F)c1 (racemic) [Compound I-199]	0 to 30	–
CCN1C(=O)[C@@H](NC(=O)c2cccc(C(F)(F)F)c2)[C@@H](c2cccc(NC(=O)/C=C/CN3CCOCC3)c2)c2c(C)nn(-c3ccccc3)c21 (racemic) [Compound I-205]	0 to 30	–
CCN1C(=O)[C@H](NC(=O)c2cccc(C(F)(F)F)c2)[C@@H](c2ccccc2NC(=O)CCl)c2c(C)nn(-c3ccccc3)c21 (racemic) [Compound I-208]	80 to 100	–

Second part, led by results:

Emax [%]	Compound	% Adduct Formation (MS Emax)
0 to 30	CCN1C(=O)[C@@H](NC(=O)c2cccc(C(F)(F)F)c2)[C@@H](c2cccc(NC(=O)[C@H](C)Br)c2)c2c(C)nn(-c3ccccc3)c21 (mixture of isomers) [Compound I-204]	–
80 to 100	C=CS(=O)(=O)Nc1cccc([C@H]2c3c(C)nn(-c4ccccc4)c3N(CC)C(=O)[C@@H]2NC(=O)c2cccc(C(F)(F)F)c2)c1 (racemic) [Compound I-5]	–
0 to 30	C=C(C)C(=O)Nc1ccccc1[C@H]1c2c(C)nn(-c3ccccc3)c2N(CC)C(=O)[C@@H]1NC(=O)c1cccc(C(F)(F)F)c1 (racemic) [Compound I-165]	–
80 to 100	C=CS(=O)(=O)Nc1ccccc1[C@H]1c2cnn(-c3ccccc3)c2N(CC)C(=O)[C@@H]1NC(=O)c1cccc(C(F)(F)F)c1 (racemic) [Compound I-166]	–
0 to 30	CCN1C(=O)[C@H](NC(=O)c2cccc(C(F)(F)F)c2)[C@@H](c2ccccc2NS(=O)(=O)CCl)c2cnn(-c3ccccc3)c21 (racemic) [Compound I-175]	–
0 to 30	CCN1C(=O)[C@H](NC(=O)c2cccc(C(F)(F)F)c2)[C@@H](c2ccccc2NC(=O)/C=C/CN2CCOCC2)c2cnn(-c3ccccc3)c21 (racemic) [Compound I-176]	–
0 to 30	CCN1C(=O)[C@H](NC(=O)c2cccc(C(F)(F)F)c2)[C@@H](c2ccc(F)cc2NC(=O)CC#N)c2cnn(-c3ccccc3)c21 (racemic) [Compound I-187]	–
0 to 30	C/C=C/C(=O)Nc1ccccc1[C@H]1c2cnn(-c3ccccc3)c2N(CC)C(=O)[C@@H]1NC(=O)c1cccc(C(F)(F)F)c1 (racemic) [Compound I-189]	–
80 to 100	CCN1C(=O)[C@@H](NC(=O)c2cccc(C(F)(F)F)c2)[C@@H](c2ccccc2NC(=O)CCl)c2c(C)nn(-c3ccccc3)c21 (racemic) [Compound I-191]	–
0 to 30	CCN1C(=O)[C@@H](NC(=O)c2cccc(C(F)(F)F)c2)[C@@H](c2cccc(NC(=O)/C=C/CN(C)C)c2)c2c(C)nn(-c3ccccc3)c21 (racemic) [Compound I-192]	–
0 to 30	CCN1C(=O)[C@H](NC(=O)c2cccc(C(F)(F)F)c2)[C@@H](c2ccccc2NC(=O)C2=CCC2)c2cnn(-c3ccccc3)c21 (racemic) [Compound I-195]	–
0 to 30	CCN1C(=O)[C@H](NC(=O)c2cccc(C(F)(F)F)c2)[C@@H](c2ccccc2NC(=O)C(Cl)Cl)c2cnn(-c3ccccc3)c21 (racemic) [Compound I-198]	–
0 to 30	CCN1C(=O)[C@H](NC(=O)c2cccc(C(F)(F)F)c2)[C@@H](c2ccccc2NC(=O)COc2c(F)c(F)cc(F)c2F)c2cnn(-c3ccccc3)c21 (racemic) [Compound I-200]	–
0 to 30	C=C(C)C(=O)Nc1cccc([C@H]2c3c(C)nn(-c4ccccc4)c3N(CC)C(=O)[C@@H]2NC(=O)c2cccc(C(F)(F)F)c2)c1 (racemic) [Compound I-201]	–
0 to 30	CCN1C(=O)[C@@H](NC(=O)c2cccc(C(F)(F)F)c2)[C@@H](c2cccc(NC(=O)CCl)c2)c2c(C)nn(-c3ccccc3)c21 (racemic) [Compound I-203]	–
0 to 30	CCN1C(=O)[C@@H](NC(=O)c2cccc(C(F)(F)F)c2)[C@@H](c2cccc(NC(=O)COc3c(F)c(F)cc(F)c3F)c2)c2c(C)nn(-c3ccccc3)c21 (racemic) [Compound I-206]	–
80 to 100	C#CC(=O)Nc1cccc([C@H]2c3c(C)nn(-c4ccccc4)c3N(CC)C(=O)[C@@H]2NC(=O)c2cccc(C(F)(F)F)c2)c1 (racemic) [Compound I-207]	–
